Drawing on patent publication US12286443B2, “Bycyclic JAK inhibitors and uses thereof” (Insilico Medicine IP Limited, priority 2019, dated 2025), this text covers IC50 for 23 compounds.

Common to all, as to type: biochemical
For one test, the target named is T1, JAK1 (Homo sapiens, UniProt P23458).
T1 construct: purchased Invitrogen PV4775
Nature of the test: Inhibition of JAK1 kinase, LANCE Ultra TR-FRET assay. To be noted: 2 nM JAK1, 2x ATP 76 μM, 15 min pre-incubation, 90 min reaction, 23° C. As to the method:
(§1) Exemplary compounds were assayed to determine potency in inhibiting activity of JAK1-3 and TYK2 kinases by determining IC50 values.
(§2) The sources of test materials and equipment are as follows: JAK1 (Invitrogen, Cat. No PV4775), JAK2 (Invitrogen, Cat. No PV4210), JAK3 (Invitrogen, Cat. No PV4080), TYK2 (Invitrogen, Cat. No PR8440C), ATP (Sigma, Cat. No. A7699-1G), DMSO (Sigma, Cat. No. D2650), DTT (Sigma, Cat. No. 43815), 384 wells_compound plate (Greiner, Cat. No. 781280), 384 wells_assay plate (Perkin Elmer, Cat. No. 6007299), LANCE Ultra ULight™-JAK-1 peptide (Perkin Elmer, Cat. No. TRF0121), LANCET™ Eu-W1024 Anti-phosphotyrosine (PT66) (Perkin Elmer, Cat. No. AD0069), LANCET™ Detection Buffer(Perkin Elmer, Cat. No. CR97-100).
(§3) The concentrations of test compounds varied from 100 μM to 1.7 nM with 3-fold dilution, 11 points, in duplicates while the concentrations of the reference compound, Tofacitinib, varied from 1 μM to 0.017 nM with 3-fold dilution, 11 points, in duplicates.
(§4) The assay buffer contained 50 mM HEPES (pH 7.5), 0.01% Brij-35, 10 mM MgCl2, 1 mM EDTA, 2 mM DTT. Incubations were carried out at 23° C.
(§5) Prior to the assay, enzyme, peptide substrate and serially diluted test compounds were pre-incubated together in assay buffer (5 μL) for 15 minutes (peptide substrate concentration: 50 nM; JAK enzyme concentrations: 2 nM JAK1; […]; […] and 4 nM TYK2). And the assay was initiated by the addition of 5 μL assay buffer containing 2× final ATP concentration (these are the 2×ATP concentrations: 76 μM JAK1; 24 μM JAK2; 8 μM JAK3 and 30 μM TYK2). Following the 90-minute incubation, antibody conjugated with Eu is dissolved in detection buffer to add into wells and then incubated for 60 minutes. The 10 μL detection buffer contains EDTA to stop the enzymatic reaction. The plate is analyzed by Perkin Elmer Envision on TR-FRET mode. The high ratio of 665/615 represents no inhibition of kinase reaction while the low ratio of 665/615 represents complete inhibition of kinase reaction.
(§6) Curves are fit by XLFIT5 as inhibition rate % vs. log [compound concentration] using 4 parameters logistic model 205.
(§7) In the table, “A” indicates an IC50 of less than 100 nM, “B” indicates an IC50 range from 100 nM to 500 nM; “C” indicates an IC50 range from 500 nM to 2 μM; and “D” indicates an IC50 greater than 2 μM. Also, “na” indicates data is not available.
On the technique in general: Time-resolved FRET reads energy transfer from a long-lived donor to a nearby acceptor.

The target in another test is T2, JAK2 (Homo sapiens, UniProt O60674).
T2 construct: purchased Invitrogen PV4210
Nature of the test: Inhibition of JAK2 kinase, LANCE Ultra TR-FRET assay. To be noted: 2x ATP 24 μM, 15 min pre-incubation, 90 min reaction, 23° C. As to the method:
as §1, §2, §3, §4, §5, §6, §7

A further test has as its target T3, JAK3 (Homo sapiens, UniProt P52333).
T3 construct: purchased Invitrogen PV4080
T3 sequence (P52333 1-1124): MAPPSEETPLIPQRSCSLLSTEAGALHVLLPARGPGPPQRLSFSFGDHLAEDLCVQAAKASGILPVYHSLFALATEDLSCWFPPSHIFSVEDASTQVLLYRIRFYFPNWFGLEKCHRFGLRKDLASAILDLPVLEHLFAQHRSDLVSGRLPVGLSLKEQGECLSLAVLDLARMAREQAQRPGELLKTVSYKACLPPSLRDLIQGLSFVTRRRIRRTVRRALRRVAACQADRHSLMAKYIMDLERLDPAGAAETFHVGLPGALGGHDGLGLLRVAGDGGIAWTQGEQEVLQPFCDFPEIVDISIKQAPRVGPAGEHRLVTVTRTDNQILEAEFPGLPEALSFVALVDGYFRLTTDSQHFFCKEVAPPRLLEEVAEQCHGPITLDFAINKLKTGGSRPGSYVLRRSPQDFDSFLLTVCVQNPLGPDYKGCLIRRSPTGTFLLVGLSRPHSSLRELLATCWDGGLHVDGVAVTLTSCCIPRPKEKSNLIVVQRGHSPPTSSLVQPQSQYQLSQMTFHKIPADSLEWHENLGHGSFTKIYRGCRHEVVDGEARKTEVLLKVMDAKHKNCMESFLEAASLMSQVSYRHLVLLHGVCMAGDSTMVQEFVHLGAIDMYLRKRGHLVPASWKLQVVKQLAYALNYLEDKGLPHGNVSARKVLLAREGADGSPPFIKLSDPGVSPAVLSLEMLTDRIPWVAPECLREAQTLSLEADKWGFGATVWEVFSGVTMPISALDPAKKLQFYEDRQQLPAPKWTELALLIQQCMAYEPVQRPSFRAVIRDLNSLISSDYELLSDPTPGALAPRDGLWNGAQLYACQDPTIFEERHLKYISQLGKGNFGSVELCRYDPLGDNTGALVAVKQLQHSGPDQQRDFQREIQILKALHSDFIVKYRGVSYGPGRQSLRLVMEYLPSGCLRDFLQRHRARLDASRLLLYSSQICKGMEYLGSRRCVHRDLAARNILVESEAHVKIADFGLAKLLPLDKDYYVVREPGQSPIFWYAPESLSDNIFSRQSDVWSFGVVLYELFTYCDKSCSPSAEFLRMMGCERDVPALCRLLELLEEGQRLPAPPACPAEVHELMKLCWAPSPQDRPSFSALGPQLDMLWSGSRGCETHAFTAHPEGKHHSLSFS
In words: Inhibition of JAK3 kinase, LANCE Ultra TR-FRET assay. The note with it: 2x ATP 8 μM, 15 min pre-incubation, 90 min reaction, 23° C. The protocol: as §1, §2, §3, §4, §5, §6, §7

Another test addresses T4, TYK2 (Homo sapiens, UniProt P29597).
T4 construct: purchased Invitrogen PR8440C
In words: Inhibition of TYK2 kinase, LANCE Ultra TR-FRET assay. To be noted: 4 nM TYK2, 2x ATP 30 μM, 15 min pre-incubation, 90 min reaction, 23° C., read-out: tyk IC50. The protocol:
as §1, §2, §3, §4, §5, §6, §7

T1 sequence (P23458 whole entry): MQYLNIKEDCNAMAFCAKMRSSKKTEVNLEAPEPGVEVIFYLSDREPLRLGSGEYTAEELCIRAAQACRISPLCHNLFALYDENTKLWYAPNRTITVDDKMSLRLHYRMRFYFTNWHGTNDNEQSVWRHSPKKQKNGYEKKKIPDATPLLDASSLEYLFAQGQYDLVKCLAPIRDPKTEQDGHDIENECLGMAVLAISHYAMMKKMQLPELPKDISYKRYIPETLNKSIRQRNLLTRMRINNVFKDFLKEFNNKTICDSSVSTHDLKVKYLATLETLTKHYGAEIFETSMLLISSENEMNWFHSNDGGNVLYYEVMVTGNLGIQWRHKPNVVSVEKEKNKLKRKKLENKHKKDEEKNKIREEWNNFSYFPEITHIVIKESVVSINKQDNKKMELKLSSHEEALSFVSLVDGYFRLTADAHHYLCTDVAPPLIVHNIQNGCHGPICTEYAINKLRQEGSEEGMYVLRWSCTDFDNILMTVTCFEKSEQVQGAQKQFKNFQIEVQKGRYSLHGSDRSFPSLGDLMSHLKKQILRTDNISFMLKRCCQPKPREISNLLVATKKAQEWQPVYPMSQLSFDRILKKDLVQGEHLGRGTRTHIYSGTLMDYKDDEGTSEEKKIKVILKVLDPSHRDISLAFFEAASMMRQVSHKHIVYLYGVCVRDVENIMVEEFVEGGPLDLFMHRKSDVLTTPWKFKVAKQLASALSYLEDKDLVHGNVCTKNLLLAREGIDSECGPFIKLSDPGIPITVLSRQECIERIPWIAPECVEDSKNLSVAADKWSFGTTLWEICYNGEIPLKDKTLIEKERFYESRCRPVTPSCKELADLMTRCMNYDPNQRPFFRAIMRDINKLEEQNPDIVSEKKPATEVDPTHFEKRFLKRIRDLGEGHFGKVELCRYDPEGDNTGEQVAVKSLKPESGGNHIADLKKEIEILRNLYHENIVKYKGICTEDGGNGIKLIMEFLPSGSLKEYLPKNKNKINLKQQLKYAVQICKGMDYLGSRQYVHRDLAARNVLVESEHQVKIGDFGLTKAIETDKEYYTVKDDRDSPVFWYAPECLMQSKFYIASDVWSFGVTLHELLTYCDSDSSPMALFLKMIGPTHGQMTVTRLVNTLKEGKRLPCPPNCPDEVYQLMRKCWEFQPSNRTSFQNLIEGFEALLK
T4 sequence (P29597 whole entry): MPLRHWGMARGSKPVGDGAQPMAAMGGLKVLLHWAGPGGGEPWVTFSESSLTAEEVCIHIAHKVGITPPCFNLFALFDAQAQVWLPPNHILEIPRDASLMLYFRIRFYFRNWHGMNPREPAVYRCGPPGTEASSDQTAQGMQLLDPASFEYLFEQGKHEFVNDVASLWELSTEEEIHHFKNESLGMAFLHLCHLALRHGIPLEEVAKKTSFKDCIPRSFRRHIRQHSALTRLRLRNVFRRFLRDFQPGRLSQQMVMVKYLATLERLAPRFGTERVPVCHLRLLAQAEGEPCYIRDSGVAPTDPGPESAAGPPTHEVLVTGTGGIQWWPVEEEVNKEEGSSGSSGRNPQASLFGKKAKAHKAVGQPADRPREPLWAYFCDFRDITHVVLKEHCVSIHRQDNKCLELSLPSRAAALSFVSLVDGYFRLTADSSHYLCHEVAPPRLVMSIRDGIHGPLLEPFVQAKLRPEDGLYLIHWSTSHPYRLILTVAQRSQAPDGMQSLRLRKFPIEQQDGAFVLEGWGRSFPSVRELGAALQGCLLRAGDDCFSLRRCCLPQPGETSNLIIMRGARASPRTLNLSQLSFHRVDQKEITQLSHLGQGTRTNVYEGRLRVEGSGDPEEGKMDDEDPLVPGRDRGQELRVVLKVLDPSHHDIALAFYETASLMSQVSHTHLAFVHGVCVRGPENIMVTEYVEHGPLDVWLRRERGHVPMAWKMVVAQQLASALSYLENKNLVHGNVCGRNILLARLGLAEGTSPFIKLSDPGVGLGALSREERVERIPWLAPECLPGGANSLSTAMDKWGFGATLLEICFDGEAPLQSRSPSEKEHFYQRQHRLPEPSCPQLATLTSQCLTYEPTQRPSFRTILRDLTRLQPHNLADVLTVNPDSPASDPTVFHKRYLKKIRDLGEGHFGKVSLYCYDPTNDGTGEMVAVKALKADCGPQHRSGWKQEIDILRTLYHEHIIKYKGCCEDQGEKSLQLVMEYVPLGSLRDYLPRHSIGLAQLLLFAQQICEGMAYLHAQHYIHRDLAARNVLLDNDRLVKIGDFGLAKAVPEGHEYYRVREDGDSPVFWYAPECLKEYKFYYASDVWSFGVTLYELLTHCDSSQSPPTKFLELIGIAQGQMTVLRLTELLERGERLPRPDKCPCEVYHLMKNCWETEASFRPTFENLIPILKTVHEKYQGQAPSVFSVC
T2 sequence (O60674 whole entry): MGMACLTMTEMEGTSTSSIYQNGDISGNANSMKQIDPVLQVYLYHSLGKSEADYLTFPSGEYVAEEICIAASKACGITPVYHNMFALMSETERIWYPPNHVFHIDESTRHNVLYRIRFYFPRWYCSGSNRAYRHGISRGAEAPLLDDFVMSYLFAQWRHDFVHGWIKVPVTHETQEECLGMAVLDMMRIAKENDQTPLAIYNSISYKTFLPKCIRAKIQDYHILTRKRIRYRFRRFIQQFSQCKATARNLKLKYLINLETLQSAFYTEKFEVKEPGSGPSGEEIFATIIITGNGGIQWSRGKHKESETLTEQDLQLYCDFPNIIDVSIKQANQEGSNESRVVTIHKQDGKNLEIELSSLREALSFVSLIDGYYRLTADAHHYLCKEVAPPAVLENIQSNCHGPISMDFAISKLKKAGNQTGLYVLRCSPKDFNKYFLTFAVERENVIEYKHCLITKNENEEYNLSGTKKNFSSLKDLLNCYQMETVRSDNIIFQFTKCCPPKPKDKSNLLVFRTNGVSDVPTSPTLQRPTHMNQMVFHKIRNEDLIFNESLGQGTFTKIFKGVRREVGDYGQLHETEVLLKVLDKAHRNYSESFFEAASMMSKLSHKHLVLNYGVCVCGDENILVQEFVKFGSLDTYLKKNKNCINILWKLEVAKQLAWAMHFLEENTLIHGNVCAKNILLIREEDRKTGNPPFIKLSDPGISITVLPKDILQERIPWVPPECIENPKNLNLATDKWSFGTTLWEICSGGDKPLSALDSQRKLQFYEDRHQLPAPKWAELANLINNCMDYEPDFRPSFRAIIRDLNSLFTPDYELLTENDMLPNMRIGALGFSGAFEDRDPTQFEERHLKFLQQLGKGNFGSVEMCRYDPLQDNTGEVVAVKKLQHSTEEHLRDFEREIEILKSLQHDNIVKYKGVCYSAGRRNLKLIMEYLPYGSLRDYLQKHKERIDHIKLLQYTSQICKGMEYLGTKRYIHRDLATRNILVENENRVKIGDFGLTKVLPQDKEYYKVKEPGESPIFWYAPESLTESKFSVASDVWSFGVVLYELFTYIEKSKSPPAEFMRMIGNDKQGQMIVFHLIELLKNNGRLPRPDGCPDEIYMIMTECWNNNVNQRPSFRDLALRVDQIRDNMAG

In the case of `O=C(NCC(CO)C(F)(F)F)c1noc2c1CN(c1ncnc3[nH]ccc13)CC2` (centres unmarked) [Compound 151], the IC50 (as a rule, the concentration at which inhibition is half-maximal) was < 100 nM against JAK1, < 100 nM against JAK2, < 100 nM against JAK3 and 500 to 2000 nM at TYK2.
As for `Cn1cc(C(=O)NCCC(F)(F)F)c2c1CCN(c1ncnc3[nH]ccc13)C2` [Compound 130], the IC50 was < 100 nM on JAK1, 100 to 500 nM against JAK2, < 100 nM on JAK3 and 100 to 500 nM on TYK2.
As for `O=C(NCCC(O)C1CCCC1)c1noc2c1CN(c1ncnc3[nH]ccc13)CC2` (centres unmarked) [Compound 159], the IC50 was 500 to 2000 nM against JAK1, > 2000 nM at JAK2, 100 to 500 nM at JAK3 and > 2000 nM on TYK2.
Take `CS(=O)(=O)C(CCNC(=O)c1noc2c1CN(c1ncnc3[nH]ccc13)CC2)C(F)(F)F` (centres unmarked) [Compound 170]: the IC50 at JAK1 is 100 to 500 nM; at JAK2, 100 to 500 nM; on JAK3, 100 to 500 nM; on TYK2 it was > 2000 nM.
As to `O=C(NCCc1ccccn1)c1noc2c1CN(c1ncnc3[nH]ccc13)CC2` [Compound 153], the IC50 was 500 to 2000 nM against JAK1, 500 to 2000 nM at JAK2, 100 to 500 nM on JAK3 and > 2000 nM on TYK2.
Regarding `CSC(CNC(=O)c1noc2c1CN(c1ncnc3[nH]ccc13)CC2)C(F)(F)F` (centres unmarked) [Compound 191], the 50% inhibitory concentration (IC50) against JAK1 is 100 to 500 nM; on JAK2, 100 to 500 nM; against JAK3, 100 to 500 nM; on TYK2 it was > 2000 nM.
In the case of `O=C(NCCC1(O)CC(F)(F)C1)c1noc2c1CN(c1ncnc3[nH]ccc13)CC2` [Compound 149], the IC50 is 500 to 2000 nM on JAK1, 500 to 2000 nM against JAK2, 100 to 500 nM against JAK3 and > 2000 nM on TYK2.
On to `FC(F)(F)CCNCc1n[nH]c2c1CN(c1ncnc3[nH]ccc13)CC2` [Compound 131], for which the IC50 at JAK1 is 100 to 500 nM; on JAK2, 100 to 500 nM; against JAK3 it was < 100 nM; at TYK2, 100 to 500 nM.
On to `CNC(=O)[C@H]1C[C@H](NC(=O)c2nn(C)c3c2CN(c2ncnc4[nH]ccc24)CC3)C1` [Compound 122], for which the IC50 against JAK1, on JAK2, on JAK3 and at TYK2 was > 2000 nM throughout.
In the case of `O=C(NCCCC1(O)CC1)c1noc2c1CN(c1ncnc3[nH]ccc13)CC2` [Compound 144], the IC50 is 100 to 500 nM on JAK1, 100 to 500 nM at JAK2, < 100 nM against JAK3 and > 2000 nM on TYK2.
In the case of `O=C(NCCS(=O)(=O)N1CCC1)c1noc2c1CN(c1ncnc3[nH]ccc13)CC2` [Compound 134], the IC50 on JAK1 was 500 to 2000 nM; on JAK2 it was 500 to 2000 nM; on JAK3, 100 to 500 nM; on TYK2, > 2000 nM.
In the case of `O=C(NCCC(F)(F)F)c1nn(C2CCNCC2)c2c1CN(c1ncnc3[nH]ccc13)CC2` [Compound 101], the IC50 is > 2000 nM against JAK1, > 2000 nM at JAK2, 500 to 2000 nM at JAK3 and > 2000 nM on TYK2.
For `Cn1nc(C(=O)NCCC(F)(F)F)c2c1CCN(c1ncnc3[nH]ccc13)C2` [Compound 107], the IC50 was < 100 nM at JAK1, 100 to 500 nM on JAK2, < 100 nM against JAK3 and 500 to 2000 nM at TYK2.
On to `CCS(=O)(=O)NC(=O)[C@H]1C[C@H](NC(=O)c2nn(C)c3c2CN(c2ncnc4[nH]ccc24)CC3)C1` [Compound 126], for which the IC50 is 100 to 500 nM against JAK1, 500 to 2000 nM against JAK2, 100 to 500 nM on JAK3 and > 2000 nM on TYK2.
Turning to `CS(=O)(=O)N1CCN(CCNC(=O)c2noc3c2CN(c2ncnc4[nH]ccc24)CC3)CC1` [Compound 167], the IC50 was 100 to 500 nM on JAK1, 500 to 2000 nM on JAK2, 100 to 500 nM against JAK3 and > 2000 nM on TYK2.
Regarding `O=C(NCCS(=O)(=O)N1CCCCC1)c1noc2c1CN(c1ncnc3[nH]ccc13)CC2` [Compound 136], the IC50 against JAK1 was 500 to 2000 nM; against JAK2, > 2000 nM; at JAK3, 100 to 500 nM; on TYK2, > 2000 nM.
Regarding `O=C(NCCC(F)(F)F)c1nn(CCCc2ccccn2)c2c1CN(c1ncnc3[nH]ccc13)CC2` [Compound 108], the IC50 was > 2000 nM at JAK1, > 2000 nM at JAK2, 100 to 500 nM at JAK3 and > 2000 nM at TYK2.
Regarding `CS(=O)(=O)N1CCC(CNC(=O)c2noc3c2CN(c2ncnc4[nH]ccc24)CC3)C1` (centres unmarked) [Compound 166], the IC50 was 500 to 2000 nM against JAK1, 500 to 2000 nM on JAK2, 100 to 500 nM on JAK3 and > 2000 nM at TYK2.
Regarding `O=C(NCCC1COC1)c1noc2c1CN(c1ncnc3[nH]ccc13)CC2` [Compound 146], the IC50 is 100 to 500 nM at JAK1, 500 to 2000 nM at JAK2, 100 to 500 nM against JAK3 and > 2000 nM at TYK2.
For `C=CCn1nc(C(=O)NCCC(F)(F)F)c2c1CCN(c1ncnc3[nH]ccc13)C2` [Compound 113], the IC50 at JAK1 was 100 to 500 nM; on JAK2 it was 100 to 500 nM; on JAK3, < 100 nM; at TYK2, 500 to 2000 nM.
Regarding `CCCS(=O)(=O)NC(=O)[C@H]1C[C@H](NC(=O)c2nn(C)c3c2CN(c2ncnc4[nH]ccc24)CC3)C1` [Compound 127], the IC50 against JAK1 is 100 to 500 nM; on JAK2, 500 to 2000 nM; against JAK3, 100 to 500 nM; at TYK2 it was > 2000 nM.
In the case of `Cn1nc(C(=O)N[C@H]2C[C@H](C(=O)NS(C)(=O)=O)C2)c2c1CCN(c1ncnc3[nH]ccc13)C2` [Compound 125], the IC50 against JAK1 is 100 to 500 nM; on JAK2, 500 to 2000 nM; on JAK3 it was 100 to 500 nM; on TYK2, > 2000 nM.
For the compound `CS(=O)(=O)N1CC(CCNC(=O)c2noc3c2CN(c2ncnc4[nH]ccc24)CC3)C1` [Compound 169], the IC50 against JAK1 was 500 to 2000 nM; on JAK2, 500 to 2000 nM; at JAK3 it was 100 to 500 nM; on TYK2, > 2000 nM.
